Data on seven molecules can be found in patent publication US5585353A, “Antibiotic peptides containing D-amino acids” (The Rockefeller University, priority 1994, dated 1996).

Residues, ends and D or L forms follow the SMILES beside them. No end group written: not given here.

What all share (assay type): cell-based
One data set concerns Sheep red cells. Description: inhibition zone assay, lethal concentration on sheep red cells. As to conditions: thin agarose plates. Here is the method:
(§1) Thin agar or agarose plates (8.5 cm diameter) were prepared with 6 ml of rich medium containing 100 ug/ml of streptomycin and 2×10^5 viable cells of a test organism resistant to streptomycin. Wells of 3.5 mm diameter were punched in the plates and 3 ul of serially diluted samples were placed in the wells. The diameters of the zones of inhibition around the wells were measured after overnight incubation at 30° or 37° C. For each peptide the squares of the zone diameters were plotted against the logarithm of the concentration, and from the slopes and intercepts the lethal concentrations were calculated as described by Hultmark (1983) EMBO J. 2, 571-76 or Hultmark et al (1982) Eur. J. Biochem. 127 207-217 each of which being incorporated herein by reference.
(§2) Lethal Concentrations calculated from inhibition zones on thin agarose
(§3) S. aureus Cowan 1; Strep: S. pyogenes; SRC: Sheep red cells.; *all amino

The test system of a further data set is S. aureus Cowan 1. The experiment in a line: inhibition zone assay, lethal concentration. Conditions: S. aureus Cowan 1, thin agarose plates. Here is the method: as §1, §2
aeruginosa; Bs11: B. subtilis; +ME: plates prepared with medium E; Staph:
as §3

In another data set the test system is B. subtilis Bs11. The experiment in a line: inhibition zone assay, lethal concentration. Conditions: for Lethal Concentrations Bs11 +ME: B. subtilis Bs11, plates prepared with medium E; for Lethal Concentrations Bs11: B. subtilis Bs11, thin agarose plates. Here is the method:
as §1, §2
(§4) aeruginosa; Bs11: B. subtilis; +ME: plates prepared with medium E; Staph: […]

The test system of a further data set is E. coli D21. The experiment in a line: inhibition zone assay, lethal concentration. As to conditions: E. coli D21, thin agarose plates. Here is the method: as §1, §2
(§5) plates seeded with the respective organisms. D21: E. coli; OT97: P.

Another data set relates to P. aeruginosa OT97. The experiment in a line: inhibition zone assay, lethal concentration. Conditions: P. aeruginosa OT97, thin agarose plates. Here is the method:
as §1, §2, §5, §4

Another data set deals with S. pyogenes. Description: inhibition zone assay, lethal concentration. As to conditions: thin agarose plates. The method, then:
as §1, §2, §3

As for `CC[C@H](C)[C@H](NC(=O)CNC(=O)[C@H](CCC(N)=O)NC(=O)CNC(=O)[C@@H](NC(=O)[C@H](CCCCN)NC(=O)[C@H](CCC(=O)O)NC(=O)[C@@H](NC(=O)[C@H](CCCCN)NC(=O)[C@H](CCCCN)NC(=O)[C@H](Cc1ccccc1)NC(=O)[C@H](CC(C)C)NC(=O)[C@H](CCCCN)NC(=O)[C@H](Cc1c[nH]c2ccccc12)NC(=O)[C@@H](N)CCCCN)[C@@H](C)CC)C(C)C)C(=O)NCC(=O)N[C@@H](C)C(=O)N[C@H](C(=O)N[C@@H](CC(C)C)C(=O)N[C@@H](CCCCN)C(=O)N[C@H](C(=O)N[C@@H](CC(C)C)C(=O)N[C@H](C(=O)N[C@H](C(=O)NCC(=O)N[C@@H](CC(C)C)C(N)=O)[C@@H](C)O)[C@@H](C)O)C(C)C)C(C)C` [Compound 3], the “Lethal Concentrations SRC” value with Sheep red cells was more than 200 µM.

On to `CC[C@@H](C)[C@@H](NC(=O)CNC(=O)[C@@H](CCC(N)=O)NC(=O)CNC(=O)[C@H](NC(=O)[C@@H](CCCCN)NC(=O)[C@@H](CCC(=O)O)NC(=O)[C@H](NC(=O)[C@@H](CCCCN)NC(=O)[C@@H](CCCCN)NC(=O)[C@@H](Cc1ccccc1)NC(=O)[C@@H](CC(C)C)NC(=O)[C@@H](CCCCN)NC(=O)[C@@H](Cc1c[nH]c2ccccc12)NC(=O)[C@H](N)CCCCN)[C@H](C)CC)C(C)C)C(=O)NCC(=O)N[C@H](C)C(=O)N[C@@H](C(=O)N[C@H](CC(C)C)C(=O)N[C@H](CCCCN)C(=O)N[C@@H](C(=O)N[C@H](CC(C)C)C(=O)N[C@@H](C(=O)N[C@@H](C(=O)NCC(=O)N[C@H](CC(C)C)C(N)=O)[C@H](C)O)[C@H](C)O)C(C)C)C(C)C` [Compound 4], for which the “Lethal Concentrations SRC” value in the data set on Sheep red cells turned out to be 500 µM.

Consider `CC[C@H](C)[C@H](NC(=O)CNC(=O)[C@@H](NC(=O)[C@H](CCCCN)NC(=O)[C@H](CCCCN)NC(=O)[C@H](Cc1ccccc1)NC(=O)[C@H](CC(C)C)NC(=O)[C@H](CCCCN)NC(=O)[C@H](Cc1c[nH]c2ccccc12)NC(=O)[C@@H](N)CCCCN)[C@@H](C)CC)C(=O)NCC(=O)N[C@@H](C)C(=O)N[C@H](C(=O)N[C@@H](CC(C)C)C(=O)N[C@@H](CCCCN)C(=O)N[C@H](C(=O)N[C@@H](CC(C)C)C(=O)N[C@H](C(=O)N[C@H](C(=O)NCC(=O)N[C@@H](CC(C)C)C(=O)N1CCC[C@H]1C(=O)N[C@@H](C)C(=O)N[C@@H](CC(C)C)C(=O)N[C@H](C(=O)N[C@@H](CO)C(N)=O)[C@@H](C)CC)[C@@H](C)O)[C@@H](C)O)C(C)C)C(C)C` [Compound 6], for which, in the data set on Sheep red cells, the “Lethal Concentrations SRC” value was more than 600 µM.

Turning to `CC[C@@H](C)[C@@H](NC(=O)CNC(=O)[C@H](NC(=O)[C@@H](CCCCN)NC(=O)[C@@H](CCCCN)NC(=O)[C@@H](Cc1ccccc1)NC(=O)[C@@H](CC(C)C)NC(=O)[C@@H](CCCCN)NC(=O)[C@@H](Cc1c[nH]c2ccccc12)NC(=O)[C@H](N)CCCCN)[C@H](C)CC)C(=O)NCC(=O)N[C@H](C)C(=O)N[C@@H](C(=O)N[C@H](CC(C)C)C(=O)N[C@H](CCCCN)C(=O)N[C@@H](C(=O)N[C@H](CC(C)C)C(=O)N[C@@H](C(=O)N[C@@H](C(=O)NCC(=O)N[C@H](CC(C)C)C(=O)N1CCC[C@@H]1C(=O)N[C@H](C)C(=O)N[C@H](CC(C)C)C(=O)N[C@@H](C(=O)N[C@H](CO)C(N)=O)[C@H](C)CC)[C@H](C)O)[C@H](C)O)C(C)C)C(C)C` [Compound 7], in the data set with Sheep red cells, the “Lethal Concentrations SRC” value was more than 400 µM.

In the case of `CC[C@@H](C)[C@@H](NC(=O)CN)C(=O)NCC(=O)N[C@H](CCCCN)C(=O)N[C@H](Cc1ccccc1)C(=O)N[C@H](CC(C)C)C(=O)N[C@H](Cc1c[nH]cn1)C(=O)N[C@H](CO)C(=O)N[C@H](C)C(=O)N[C@H](CCCCN)C(=O)N[C@H](CCCCN)C(=O)N[C@H](Cc1ccccc1)C(=O)NCC(=O)N[C@H](CCCCN)C(=O)N[C@H](C)C(=O)N[C@H](Cc1ccccc1)C(=O)N[C@@H](C(=O)NCC(=O)N[C@H](CCC(=O)O)C(=O)N[C@@H](C(=O)N[C@H](CCSC)C(=O)N[C@H](CC(N)=O)C(=O)N[C@H](CO)C(N)=O)[C@H](C)CC)C(C)C` [Compound 9] (HELM PEPTIDE1{G.[dI].G.[dK].[dF].[dL].[dH].[dS].[dA].[dK].[dK].[dF].G.[dK].[dA].[dF].[dV].G.[dE].[dI].[dM].[dN].[dS].[am]}$$$$V2.0), the “Lethal Concentrations Staph” value in the data set on S. aureus Cowan 1 worked out at 100 µM. Also, the “Lethal Concentrations SRC” value in the data set on Sheep red cells was more than 400 µM. Moreover, in the data set with B. subtilis Bs11, the “Lethal Concentrations Bs11 +ME” value was determined as 4 µM and the “Lethal Concentrations Bs11” value worked out at 3 µM. Further, in the data set on E. coli D21, the “Lethal Concentrations D21” value stood at 1 µM. Moreover, the “Lethal Concentrations OT97” value with P. aeruginosa OT97 is 30 µM. Further, in the data set with S. pyogenes, the “Lethal Concentrations Strep” value turned out to be 3 µM.

As to `CC[C@H](C)[C@H](NC(=O)CN)C(=O)NCC(=O)N[C@@H](C)C(=O)N[C@H](C(=O)N[C@@H](CC(C)C)C(=O)N[C@@H](CCCCN)C(=O)N[C@H](C(=O)N[C@@H](CC(C)C)C(=O)N[C@H](C(=O)N[C@H](C(=O)NCC(=O)N[C@@H](CC(C)C)C(=O)N1CCC[C@H]1C(=O)N[C@@H](C)C(=O)N[C@@H](CC(C)C)C(=O)N[C@H](C(=O)N[C@@H](CO)C(=O)N[C@@H](Cc1c[nH]c2ccccc12)C(=O)N[C@H](C(=O)N[C@@H](CCCCN)C(=O)N[C@@H](CCCNC(=N)N)C(=O)N[C@@H](CCCCN)C(=O)N[C@@H](CCCNC(=N)N)C(=O)N[C@@H](CCC(N)=O)C(=O)N[C@@H](CCC(N)=O)C(N)=O)[C@@H](C)CC)[C@@H](C)CC)[C@@H](C)O)[C@@H](C)O)C(C)C)C(C)C` [Compound 10, Melittin], the “Lethal Concentrations Staph” value in the data set with S. aureus Cowan 1 came out at 0.2 µM. For the same molecule, in the data set on Sheep red cells, the “Lethal Concentrations SRC” value lay within 4 to 8 µM. Also, in the data set with B. subtilis Bs11, the “Lethal Concentrations Bs11 +ME” value came to 0.3 µM and the “Lethal Concentrations Bs11” value amounted to 0.2 µM. The “Lethal Concentrations D21” value with E. coli D21 was 0.8 µM. In addition, the “Lethal Concentrations OT97” value in the data set with P. aeruginosa OT97 amounted to 3 µM. In the data set on S. pyogenes, the “Lethal Concentrations Strep” value came out at 0.5 µM.

For the molecule “GIGKFLHSAKKFGKAFVGEIMNS-NH2 [Compound 8]”, the “Lethal Concentrations Staph” value in the data set with S. aureus Cowan 1 stood at 300 µM. Besides, the “Lethal Concentrations SRC” value in the data set with Sheep red cells stood at 300 µM. In the data set with B. subtilis Bs11, the “Lethal Concentrations Bs11 +ME” value was determined as 8 µM and the “Lethal Concentrations Bs11” value was 3 µM. For the same molecule, in the data set on E. coli D21, the “Lethal Concentrations D21” value was determined as 4 µM. Also, in the data set on P. aeruginosa OT97, the “Lethal Concentrations OT97” value worked out at 30 µM. Also, the “Lethal Concentrations Strep” value in the data set with S. pyogenes amounted to 4 µM.
